From US9447148B2, “Melanocortin-1 receptor-specific cyclic peptides” (Palatin Technologies, Inc., priority 2009, dated 2016)
Numbered stars: 1 amine (or outer) side, 2 acyl side, 3 side chain; on linkers, the order of the positions; unused ones are H or OH. Bridge positions count the residues as written; N and C are the ends. Square brackets hold non-standard residues; d marks the D form. Peptide text beside a SMILES is read from it. Suc = O=C(CCC(=O)[*:2])[*:1]; Dab = NCC[C@H](N)C(=O)O

Molecular target: hMCR-4 (Homo sapiens (Human), UniProt P32245)
Assay: Competitive inhibition binding assay using [I125]-NDP-α-MSH, hMCR-4
Settings: membrane homogenates of HEK-293 cells, human recombinant receptor, averaged, read-out: MC-4 Ki (average)
Method: A competitive inhibition binding assay was performed using membrane homogenates prepared from HEK-293 cells that express recombinant hMCR-1a or hMCR-4 (in each instance where the h prefix refers to human), or alternatively membrane homogenates from B16-F10 mouse melanoma cells containing endogenous murine MCR-1. In the examples that follow, all MCR-1 and MCR-4 values are for human recombinant receptors, unless otherwise noted. Assays were performed in 96 well polypropylene round-bottom plates (VWR catalog number 12777-030). […] After incubation for 90 minutes at 37° C., the assay mixture was filtered onto GF/B Unifilter plates (Perkin-Elmer catalog number 6005177) and washed with 3 mL of ice-cold buffer per well. Filters were air dried and 35 μL of scintillation cocktail added to each well. Plates were counted in a Microbeta counter for bound radioactivity. […] Each assay was conducted in duplicate and the actual mean values are described, with results less than 0% reported as 0%. Ki values for peptides of the present invention were determined using Graph-Pad Prism® curve-fitting software.
Peptides of the following structures were synthesized and averaged MCR-1 and MCR-4 Ki values were determined as indicated. […] All results are expressed in nM except for Emax values, which are percentage values. Peptides with the captioned primary sequence were synthesized and purified as described in Section 5 above, with the resulting peptide having the structure depicted.

Sequence of hMCR-4 (P32245 whole entry): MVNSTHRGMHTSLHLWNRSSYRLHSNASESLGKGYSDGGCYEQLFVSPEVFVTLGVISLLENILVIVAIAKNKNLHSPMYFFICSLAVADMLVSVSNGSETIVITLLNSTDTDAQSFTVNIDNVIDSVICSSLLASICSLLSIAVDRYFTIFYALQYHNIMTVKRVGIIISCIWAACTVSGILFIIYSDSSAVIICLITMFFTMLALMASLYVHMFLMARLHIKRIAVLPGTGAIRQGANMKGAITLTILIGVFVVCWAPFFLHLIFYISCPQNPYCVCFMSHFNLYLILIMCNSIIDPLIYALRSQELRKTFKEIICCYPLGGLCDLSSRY

Row | Compound | Ki [nM]
1 | CCCC[C@H](NC(C)=O)C(=O)N[C@H]1CCC(=O)NCCCC[C@@H](C(=O)N[C@@H](Cc2c[nH]c3ccccc23)C(N)=O)NC(=O)[C@H](CCCNC(=N)N)NC(=O)[C@@H](Cc2ccccc2)NC(=O)[C@H](Cc2c[nH]cn2)NC1=O [Example 9.1, Ac-Nle-cyclo(Glu-His-D-Phe-Arg-Lys)-Trp-NH2] | 45
2 | CCCC[C@H](NC(C)=O)C(=O)N[C@H]1CCC(=O)NCC[C@@H](C(=O)N[C@@H](Cc2c[nH]c3ccccc23)C(N)=O)NC(=O)[C@H](CCCNC(=N)N)NC(=O)[C@@H](Cc2ccccc2)NC(=O)[C@H](Cc2c[nH]cn2)NC1=O [Example 9.2, Ac-Nle-cyclo(Glu-His-D-Phe-Arg-Dab)-Trp-NH2] | 110
3 | CCCC[C@H](NC(C)=O)C(=O)N[C@H]1CCC(=O)NC[C@@H](C(=O)N[C@@H](Cc2c[nH]c3ccccc23)C(N)=O)NC(=O)[C@H](CCCNC(=N)N)NC(=O)[C@@H](Cc2ccccc2)NC(=O)[C@H](Cc2c[nH]cn2)NC1=O [Example 9.3, Ac-Nle-cyclo(Glu-His-D-Phe-Arg-Dap)-Trp-NH2] | 358
4 | CCCC[C@H](NC(C)=O)C(=O)N[C@H]1CCC(=O)NCCC[C@@H](C(=O)N[C@@H](Cc2c[nH]c3ccccc23)C(N)=O)NC(=O)[C@H](CCCNC(=N)N)NC(=O)[C@@H](Cc2ccccc2)NC(=O)[C@H](Cc2c[nH]cn2)NC1=O [Example 9.6, Ac-Nle-cyclo(Glu-His-D-Phe-Arg-Orn)-Trp-NH2] | 295
5 | CCCC[C@H](NC(C)=O)C(=O)N[C@H]1CCC(=O)NCC[C@@H](C(=O)N[C@H](Cc2c[nH]c3ccccc23)C(N)=O)NC(=O)[C@H](CCCNC(=N)N)NC(=O)[C@@H](Cc2ccccc2)NC(=O)[C@H](Cc2c[nH]cn2)NC1=O [Example 9.7, Ac-Nle-cyclo(Glu-His-D-Phe-Arg-Dab)-D-Trp-NH2] | 33
6 | CCCC[C@H](NC(C)=O)C(=O)N[C@H]1CCC(=O)NCC[C@@H](C(=O)N[C@@H](Cc2c[nH]c3ccccc23)C(N)=O)NC(=O)[C@H](CCCNC(=N)N)NC(=O)[C@H](Cc2ccccc2)NC(=O)[C@H](Cc2c[nH]cn2)NC1=O [Example 9.8, Ac-Nle-cyclo(Glu-His-Phe-Arg-Dab)-Trp-NH2] | 10000
7 | CCCC[C@H](NC(C)=O)C(=O)N[C@H]1CCC(=O)NCC[C@@H](C(=O)N[C@H](Cc2cccc3ccccc23)C(N)=O)NC(=O)[C@H](CCCNC(=N)N)NC(=O)[C@@H](Cc2ccccc2)NC(=O)[C@H](Cc2c[nH]cn2)NC1=O [Example 9.9, Ac-Nle-cyclo(Glu-His-D-Phe-Arg-Dab)-D-Nal 1-NH2] | 2
8 | CCCC[C@H](NC(C)=O)C(=O)N[C@H]1CCC(=O)NCC[C@@H](C(=O)N[C@@H](Cc2ccc3ccccc3c2)C(N)=O)NC(=O)[C@H](CCCNC(=N)N)NC(=O)[C@@H](Cc2ccccc2)NC(=O)[C@H](Cc2c[nH]cn2)NC1=O [Example 9.10, Ac-Nle-cyclo(Glu-His-D-Phe-Arg-Dab)-Nal 2-NH2] | 3
9 | CCCC[C@H](NC(C)=O)C(=O)N[C@H]1CCC(=O)NCC[C@@H](C(=O)N[C@H](Cc2ccc3ccccc3c2)C(N)=O)NC(=O)[C@H](CCCNC(=N)N)NC(=O)[C@@H](Cc2ccccc2)NC(=O)[C@H](Cc2c[nH]cn2)NC1=O [Example 9.11, Ac-Nle-cyclo(Glu-His-D-Phe-Arg-Dab)-D-Nal 2-NH2] | 0.095
10 | CC(=O)N[C@H](Cc1ccccc1)C(=O)N[C@H]1CCC(=O)NCC[C@@H](C(=O)N[C@@H](Cc2c[nH]c3ccccc23)C(N)=O)NC(=O)[C@H](CCCNC(=N)N)NC(=O)[C@@H](Cc2ccccc2)NC(=O)[C@H](Cc2c[nH]cn2)NC1=O [Example 9.12, Ac-D-Phe-cyclo(Glu-His-D-Phe-Arg-Dab)-Trp-NH2] | 535
11 | N=C(N)NCCC[C@@H]1NC(=O)[C@@H](Cc2ccccc2)NC(=O)[C@H](Cc2c[nH]cn2)NC(=O)CCC(=O)NCC[C@@H](C(=O)N[C@@H](Cc2c[nH]c3ccccc23)C(N)=O)NC1=O [Example 9.14, cyclo(Suc-His-Phe-Arg-Dab)-Trp-NH2] (H[dF]R[Dab]W-NH2; linker N-4 via Suc) | 10000
12 | CCCCCC(=O)N[C@H]1CCC(=O)NCC[C@@H](C(=O)N[C@@H](Cc2c[nH]c3ccccc23)C(N)=O)NC(=O)[C@H](CCCNC(=N)N)NC(=O)[C@@H](Cc2ccccc2)NC(=O)[C@H](Cc2c[nH]cn2)NC1=O [Example 9.17, CH3—(CH2)4—C(═O)-cyclo(Glu-His-D-Phe-Arg-Dab)-Trp-NH2] | 110
13 | CCCC[C@H](NC(C)=O)C(=O)N[C@H]1CCNC(=O)CCC(=O)NCC[C@@H](C(=O)N[C@@H](Cc2c[nH]c3ccccc23)C(N)=O)NC(=O)[C@H](CCCNC(=N)N)NC(=O)[C@@H](Cc2ccccc2)NC(=O)[C@H](Cc2c[nH]cn2)NC1=O [Example 9.27] | 380
14 | CCCC[C@H](NC(C)=O)C(=O)N[C@H]1CNC(=O)CCC(=O)NC[C@@H](C(=O)N[C@@H](Cc2c[nH]c3ccccc23)C(N)=O)NC(=O)[C@H](CCCNC(=N)N)NC(=O)[C@@H](Cc2ccccc2)NC(=O)[C@H](Cc2c[nH]cn2)NC1=O [Example 9.28] | 680
15 | CCCC[C@H](NC(C)=O)C(=O)N[C@H]1CCNC(=O)CCC(=O)NC[C@@H](C(=O)N[C@@H](Cc2c[nH]c3ccccc23)C(N)=O)NC(=O)[C@H](CCCNC(=N)N)NC(=O)[C@@H](Cc2ccccc2)NC(=O)[C@H](Cc2c[nH]cn2)NC1=O [Example 9.29] | 325
16 | CCCC[C@H](NC(C)=O)C(=O)N[C@H]1CCC(=O)NCC[C@@H](C(=O)N[C@@H](Cc2cccc3ccccc23)C(N)=O)NC(=O)[C@H](CCCNC(=N)N)NC(=O)[C@@H](Cc2ccccc2)NC(=O)[C@H](Cc2c[nH]cn2)NC1=O [Example 9.30, Ac-Nle-cyclo(Glu-His-D-Phe-Arg-Dab)-Nal 1-NH2] | 0.75
17 | CCCC[C@H](NC(C)=O)C(=O)N[C@H]1CCC(=O)NCC[C@@H](C(=O)N[C@@H](Cc2c[nH]c3ccccc23)C(N)=O)NC(=O)[C@H](CCCNC(=N)N)NC(=O)[C@@H](Cc2ccccc2)NC(=O)[C@H](C)NC1=O [Example 9.36, Ac-Nle-cyclo(Glu-Ala-D-Phe-Arg-Dab)-Trp-NH2] | 455
18 | CCCC[C@H](NC(C)=O)C(=O)N[C@H]1CCC(=O)NCC[C@@H](C(=O)N[C@@H](Cc2c[nH]c3ccccc23)C(N)=O)NC(=O)[C@H](CCCNC(=N)N)NC(=O)[C@@H](Cc2ccccc2)NC(=O)[C@H](CCCNC(=N)N)NC1=O [Example 9.37, Ac-Nle-cyclo(Glu-Arg-D-Phe-Arg-Dab)-Trp-NH2] | 20
19 | CCCC[C@H](NC(C)=O)C(=O)N[C@H]1CCC(=O)NCC[C@@H](C(=O)N[C@@H](Cc2c[nH]c3ccccc23)C(N)=O)NC(=O)[C@H](CCCNC(=N)N)NC(=O)[C@@H](Cc2ccccc2)NC(=O)[C@H](CCCNC(N)=O)NC1=O [Example 9.38, Ac-Nle-cyclo(Glu-Cit-D-Phe-Arg-Dab)-Trp-NH2] | 98
20 | CCCC[C@H](NC(C)=O)C(=O)N[C@H]1CCC(=O)NCC[C@@H](C(=O)N[C@@H](Cc2c[nH]c3ccccc23)C(N)=O)NC(=O)[C@H](CCCNC(=N)N)NC(=O)[C@@H](Cc2ccccc2)NC(=O)[C@H](CCCCN)NC1=O [Example 9.40, Ac-Nle-cyclo(Glu-Lys-D-Phe-Arg-Dab)-Trp-NH2] | 95
21 | CCCC[C@H](NC(C)=O)C(=O)N[C@H]1CCC(=O)NCC[C@@H](C(=O)N[C@@H](Cc2c[nH]c3ccccc23)C(N)=O)NC(=O)[C@H](CCCNC(=N)N)NC(=O)[C@@H](Cc2ccccc2)NC(=O)[C@H](CCN)NC1=O [Example 9.41, Ac-Nle-cyclo(Glu-Dab-D-Phe-Arg-Dab)-Trp-NH2] | 98
